# Publication PMC6399515 (Insect Biochemistry and Molecular Biology, 2016)
# Tests used:
# [1] = target: T1, CYP6P2 (Anopheles gambiae, UniProt Q8T629, V81I); experiment: biochemical
# T1 sequence (Q8T629 1-507 V81I): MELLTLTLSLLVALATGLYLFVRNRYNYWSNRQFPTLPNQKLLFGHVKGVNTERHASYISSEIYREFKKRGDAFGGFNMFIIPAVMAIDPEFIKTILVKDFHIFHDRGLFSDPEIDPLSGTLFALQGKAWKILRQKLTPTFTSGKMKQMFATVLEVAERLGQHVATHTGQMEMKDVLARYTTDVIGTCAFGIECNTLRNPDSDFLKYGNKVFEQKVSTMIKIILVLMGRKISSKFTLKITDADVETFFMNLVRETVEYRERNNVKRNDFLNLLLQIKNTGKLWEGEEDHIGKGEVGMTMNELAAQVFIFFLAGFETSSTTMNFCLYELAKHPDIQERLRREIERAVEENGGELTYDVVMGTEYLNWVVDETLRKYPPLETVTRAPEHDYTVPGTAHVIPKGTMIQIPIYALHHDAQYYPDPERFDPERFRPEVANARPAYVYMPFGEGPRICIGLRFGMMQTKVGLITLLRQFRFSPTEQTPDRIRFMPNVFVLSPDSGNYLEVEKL
# T1 sequence (Q7QFI3 1-587 partner): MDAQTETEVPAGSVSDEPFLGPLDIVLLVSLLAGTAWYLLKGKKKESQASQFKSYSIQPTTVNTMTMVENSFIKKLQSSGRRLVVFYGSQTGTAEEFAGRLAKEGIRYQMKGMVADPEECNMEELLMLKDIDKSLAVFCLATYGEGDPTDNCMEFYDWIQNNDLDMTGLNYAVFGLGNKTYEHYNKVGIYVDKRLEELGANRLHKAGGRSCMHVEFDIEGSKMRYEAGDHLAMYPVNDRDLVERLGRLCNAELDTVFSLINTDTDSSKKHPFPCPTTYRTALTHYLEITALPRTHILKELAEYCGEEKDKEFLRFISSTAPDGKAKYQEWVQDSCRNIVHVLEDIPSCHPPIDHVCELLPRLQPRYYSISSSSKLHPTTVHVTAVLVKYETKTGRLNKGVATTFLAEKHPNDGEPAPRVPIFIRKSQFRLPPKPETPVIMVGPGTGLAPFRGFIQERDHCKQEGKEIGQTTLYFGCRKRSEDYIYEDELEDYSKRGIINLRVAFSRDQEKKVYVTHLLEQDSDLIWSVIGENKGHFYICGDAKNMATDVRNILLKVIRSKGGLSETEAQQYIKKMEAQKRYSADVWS
# T1 sequence (Q86QH4 1-128 partner): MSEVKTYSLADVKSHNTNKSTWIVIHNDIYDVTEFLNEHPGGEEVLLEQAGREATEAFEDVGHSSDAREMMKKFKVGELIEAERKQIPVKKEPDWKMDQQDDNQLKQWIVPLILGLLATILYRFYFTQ
# [2] = target: T2, CYP9J5 (Anopheles gambiae, UniProt Q5TN57); experiment: biochemical
# T2 sequence (Q5TN57 1-545): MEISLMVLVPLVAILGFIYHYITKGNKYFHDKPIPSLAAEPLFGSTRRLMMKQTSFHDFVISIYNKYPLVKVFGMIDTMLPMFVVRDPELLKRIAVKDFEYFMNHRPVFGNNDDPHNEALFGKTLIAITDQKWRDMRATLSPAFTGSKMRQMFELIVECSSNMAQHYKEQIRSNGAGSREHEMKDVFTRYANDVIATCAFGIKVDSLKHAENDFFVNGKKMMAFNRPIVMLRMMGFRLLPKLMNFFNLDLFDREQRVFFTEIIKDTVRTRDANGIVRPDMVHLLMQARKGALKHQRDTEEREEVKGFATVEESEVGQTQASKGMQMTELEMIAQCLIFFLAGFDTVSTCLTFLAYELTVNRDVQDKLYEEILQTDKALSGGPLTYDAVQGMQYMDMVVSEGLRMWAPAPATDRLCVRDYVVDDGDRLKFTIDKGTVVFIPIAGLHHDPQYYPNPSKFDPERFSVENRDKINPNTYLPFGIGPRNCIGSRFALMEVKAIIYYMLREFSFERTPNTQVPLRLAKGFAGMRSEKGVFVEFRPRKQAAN
# T2 sequence (Q86QH5 1-679 partner): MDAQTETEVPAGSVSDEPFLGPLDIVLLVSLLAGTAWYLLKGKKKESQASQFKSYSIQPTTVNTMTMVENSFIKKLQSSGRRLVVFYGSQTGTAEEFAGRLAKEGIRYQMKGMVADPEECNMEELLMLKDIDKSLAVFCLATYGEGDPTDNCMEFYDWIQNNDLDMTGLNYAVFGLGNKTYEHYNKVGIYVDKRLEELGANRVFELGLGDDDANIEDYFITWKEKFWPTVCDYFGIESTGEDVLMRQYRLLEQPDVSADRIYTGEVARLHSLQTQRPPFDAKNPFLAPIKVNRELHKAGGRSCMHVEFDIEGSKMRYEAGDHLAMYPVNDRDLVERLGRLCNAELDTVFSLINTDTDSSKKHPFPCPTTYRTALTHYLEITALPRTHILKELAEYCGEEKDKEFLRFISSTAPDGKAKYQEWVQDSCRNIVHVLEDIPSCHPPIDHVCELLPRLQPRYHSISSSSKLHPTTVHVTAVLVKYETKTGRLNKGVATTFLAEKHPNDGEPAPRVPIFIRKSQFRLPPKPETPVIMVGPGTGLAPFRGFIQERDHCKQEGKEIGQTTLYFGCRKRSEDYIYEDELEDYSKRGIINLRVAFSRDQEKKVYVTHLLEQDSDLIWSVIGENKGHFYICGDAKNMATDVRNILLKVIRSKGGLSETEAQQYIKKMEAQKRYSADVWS
# T2 sequence (Q86QH4 1-128 partner): T1 sequence (Q86QH4 1-128 partner)
# [3] = target: CYP6M2 (Anopheles gambiae, UniProt Q7Q449)
# Sequence of CYP6M2 (Q7Q449 1-499, one chain of several): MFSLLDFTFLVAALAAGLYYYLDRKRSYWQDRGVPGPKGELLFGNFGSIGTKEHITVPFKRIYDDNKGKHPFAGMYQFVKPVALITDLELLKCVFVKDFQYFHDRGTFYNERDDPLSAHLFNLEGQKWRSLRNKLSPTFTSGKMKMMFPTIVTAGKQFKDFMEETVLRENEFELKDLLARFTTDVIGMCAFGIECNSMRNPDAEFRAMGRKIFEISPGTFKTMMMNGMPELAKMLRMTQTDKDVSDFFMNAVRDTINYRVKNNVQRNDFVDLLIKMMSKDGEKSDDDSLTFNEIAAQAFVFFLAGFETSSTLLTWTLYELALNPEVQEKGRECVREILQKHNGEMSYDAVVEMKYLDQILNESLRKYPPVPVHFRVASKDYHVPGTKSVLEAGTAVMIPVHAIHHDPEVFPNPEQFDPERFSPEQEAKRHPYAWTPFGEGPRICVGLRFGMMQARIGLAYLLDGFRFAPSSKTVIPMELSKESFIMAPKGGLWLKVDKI
# [4] = target: T3, CYP6P4 (Anopheles gambiae, UniProt Q7QCY8)
# T3 sequence (Q7QCY8 1-506): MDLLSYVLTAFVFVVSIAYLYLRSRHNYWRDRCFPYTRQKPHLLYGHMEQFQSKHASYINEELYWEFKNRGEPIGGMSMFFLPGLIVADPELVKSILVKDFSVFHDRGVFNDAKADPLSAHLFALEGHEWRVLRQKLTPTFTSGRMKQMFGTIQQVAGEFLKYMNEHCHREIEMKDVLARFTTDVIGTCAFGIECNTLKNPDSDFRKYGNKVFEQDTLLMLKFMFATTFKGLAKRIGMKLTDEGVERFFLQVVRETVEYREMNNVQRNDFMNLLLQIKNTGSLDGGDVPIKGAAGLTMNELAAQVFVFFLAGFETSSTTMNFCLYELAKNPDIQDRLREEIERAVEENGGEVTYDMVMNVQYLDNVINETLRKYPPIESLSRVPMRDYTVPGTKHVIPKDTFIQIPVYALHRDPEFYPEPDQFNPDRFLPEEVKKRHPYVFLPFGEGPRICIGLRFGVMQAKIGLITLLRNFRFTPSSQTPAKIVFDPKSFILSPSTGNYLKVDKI
# T3 sequence (Q86QH5 1-679 partner): T2 sequence (Q86QH5 1-679 partner)
# T3 sequence (Q86QH4 1-128 partner): T1 sequence (Q86QH4 1-128 partner)
Structure (SMILES),IC50 ([1]; IC50 of DEF metabolism) [µM],IC50 [2] [µM],Inhibition ratio (%): reduction of PPF depletion caused by PBO [3] [%],Inhibition ratio (%): reduction of PPF depletion caused by PBO [4] [%],"% PPF depletion + PBO ([3]; Anopheles gambiae, pH 7.4) [%]","% PPF depletion −PBO ([3]; Anopheles gambiae, pH 7.4) [%]","% PPF depletion + PBO ([4]; Anopheles gambiae, pH 7.4) [%]","% PPF depletion −PBO ([4]; Anopheles gambiae, pH 7.4) [%]",IC50 ([1]; category of inhibition of DEF metabolism) [µM]
"CC1(C)C(C=C(Cl)Cl)C1C(=O)OCc1cccc(Oc2ccccc2)c1 (mixture of isomers) [Permethrin, 3-phenoxybenzyl (1R,S)-cis,trans-3-(2,2-dichlorovinyl)-2,2-dimethylcyclopropanecarboxylate]",8.61,6.47,,,,,,,
"CCCCOCCOCCOCc1cc2c(cc1CCC)OCO2 [PBO, piperonyl butoxide]",,,95.3,94.6,,,,,
"CC(COc1ccc(Oc2ccccc2)cc1)Oc1ccccn1 (centres unmarked) [PPF, pyriproxyfen]",9.95,19,,,1.44 ± 0.67,30.93 ± 4.65,4.44 ± 1.99,81.63 ± 0.63,1 to 10
